Laboratory results reported in US9963434B2, “N-arylmethyl sulfonamide negative modulators of NR2A” (LUC THERAPEUTICS, priority 2013, dated 2018).
Where two headings read alike, the source gives them in different places.

Target: NR1/NR2A (Homo sapiens (Human), UniProt Q05586+Q12879)
Experiment: FDSS Ca2+ influx inhibition assay in HEK293 cells expressing NR1/NR2A
Type: cell-based
Details: 3 μM glutamate, 3 μM glycine, 1 mM Ca2+
Method in brief: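 Fluo-8-loaded HEK293 NR1/NR2A cells preincubated 10 min with compound at 10 μM final (0.1% DMSO) in Ca2+/Mg2+-free HBSS with 20 mM HEPES. Stimulated with 3 μM glutamate, 3 μM glycine, 1 mM Ca2+; FDSS recording for 3 min, end/baseline fluorescence ratio compared with MK801.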

[1] = inhibition relative to MK801, read-out: NR2A IC50

Sequence of NR1/NR2A (Q12879 23-1464, other chains not shown): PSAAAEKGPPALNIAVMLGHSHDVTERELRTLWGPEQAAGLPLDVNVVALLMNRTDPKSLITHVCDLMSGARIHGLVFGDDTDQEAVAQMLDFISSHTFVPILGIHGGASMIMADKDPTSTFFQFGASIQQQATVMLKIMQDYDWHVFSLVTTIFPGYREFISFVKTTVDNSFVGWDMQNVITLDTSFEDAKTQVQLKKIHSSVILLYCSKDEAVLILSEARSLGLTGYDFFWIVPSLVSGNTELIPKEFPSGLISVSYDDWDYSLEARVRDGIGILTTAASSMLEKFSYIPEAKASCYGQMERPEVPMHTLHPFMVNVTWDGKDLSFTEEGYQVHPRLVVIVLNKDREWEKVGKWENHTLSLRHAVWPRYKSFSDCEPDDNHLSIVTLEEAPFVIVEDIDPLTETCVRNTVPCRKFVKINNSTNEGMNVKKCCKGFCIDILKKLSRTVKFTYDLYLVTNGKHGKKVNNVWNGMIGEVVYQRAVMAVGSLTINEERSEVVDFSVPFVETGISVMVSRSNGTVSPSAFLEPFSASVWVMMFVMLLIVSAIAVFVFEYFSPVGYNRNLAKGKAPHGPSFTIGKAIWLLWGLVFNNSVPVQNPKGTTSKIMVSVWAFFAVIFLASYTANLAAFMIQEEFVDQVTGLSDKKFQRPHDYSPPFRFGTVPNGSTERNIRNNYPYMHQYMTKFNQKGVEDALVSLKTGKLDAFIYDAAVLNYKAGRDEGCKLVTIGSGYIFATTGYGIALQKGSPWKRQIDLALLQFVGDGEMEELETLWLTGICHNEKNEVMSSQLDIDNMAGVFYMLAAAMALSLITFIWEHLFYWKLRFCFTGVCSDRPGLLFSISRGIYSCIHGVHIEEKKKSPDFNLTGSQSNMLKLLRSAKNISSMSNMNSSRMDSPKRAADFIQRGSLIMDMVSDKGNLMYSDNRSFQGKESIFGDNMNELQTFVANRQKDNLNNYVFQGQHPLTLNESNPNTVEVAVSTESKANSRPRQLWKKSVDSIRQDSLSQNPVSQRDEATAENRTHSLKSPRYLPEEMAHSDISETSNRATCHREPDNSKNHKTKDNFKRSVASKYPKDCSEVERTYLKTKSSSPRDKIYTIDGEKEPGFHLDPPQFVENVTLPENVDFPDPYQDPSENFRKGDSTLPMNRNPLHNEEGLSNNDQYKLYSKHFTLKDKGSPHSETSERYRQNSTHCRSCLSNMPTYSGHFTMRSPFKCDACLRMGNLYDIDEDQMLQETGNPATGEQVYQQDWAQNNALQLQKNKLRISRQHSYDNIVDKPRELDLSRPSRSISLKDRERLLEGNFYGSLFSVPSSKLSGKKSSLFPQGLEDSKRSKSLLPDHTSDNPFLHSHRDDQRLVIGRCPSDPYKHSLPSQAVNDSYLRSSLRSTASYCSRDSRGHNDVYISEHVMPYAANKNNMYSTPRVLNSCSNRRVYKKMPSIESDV

SMILES: Cn1ccnc1CNC(=O)c1ccc(CNS(=O)(=O)c2ccc(F)c(Cl)c2)nc1 [6-(3-chloro-4-fluorobenzenesulfon-amidomethyl)-N-[(1-methyl-1H-imidazol-2-yl)methyl]pyridine-3-carboxamide]
- IC50 (read-out: Binned Activity): 0.1 to 1 µM

SMILES: Cn1cnc(CNC(=O)c2ccc(CNS(=O)(=O)c3ccc(F)c(Cl)c3)nn2)c1 [6-(3-chloro-4-fluorobenzenesulfon-amidomethyl)-N-[(1-methyl-1H-imidazol-4-yl)methyl]pyridazine-3-carboxamide]
- IC50 [1]: 10 µM
- IC50 (read-out: Binned Activity): > 10 µM

SMILES: Cn1cnc(CNC(=O)c2ccc(CNS(=O)(=O)c3ccc(F)c(Cl)c3)nc2)c1 [6-(3-chloro-4-fluorobenzenesulfon-amidomethyl)-N-[(1-methyl-1H-imidazol-4-yl)methyl]pyridine-3-carboxamide]
- IC50 [1]: 10 µM
- IC50 (read-out: Binned Activity): > 10 µM

SMILES: Cn1nccc1CNC(=O)c1ccc(CNS(=O)(=O)c2ccc(F)c(Cl)c2)nc1 [6-(3-chloro-4-fluorobenzenesulfon-amidomethyl)-N-[(1-methyl-1H-pyrazol-5-yl)methyl]pyridine-3-carboxamide]
- IC50 [1]: 10 µM
- IC50 (read-out: Binned Activity): > 10 µM

SMILES: Cn1cccc1CNC(=O)c1ccc(CNS(=O)(=O)c2ccc(F)c(Cl)c2)nc1 [6-(3-chloro-4-fluorobenzenesulfon-amidomethyl)-N-[(1-methyl-1H-pyrrol-2-yl)methyl]pyridine-3-carboxamide]
- IC50 [1]: 10 µM
- IC50 (read-out: Binned Activity): > 10 µM

SMILES: C[C@@H](NC(=O)c1ccc(CNS(=O)(=O)c2ccc(F)c(Cl)c2)nn1)c1cncs1 [6-(3-chloro-4-fluorobenzenesulfon-amidomethyl)-N-[(1R)-1-(1,3-thiazol-5-yl)ethyl]pyridazine-3-carboxamide]
- IC50 [1]: 10 µM
- IC50 (read-out: Binned Activity): > 10 µM

SMILES: C[C@@H](NC(=O)c1ccc(CNS(=O)(=O)c2ccc(F)c(Cl)c2)nc1)c1cncs1 [6-(3-chloro-4-fluorobenzenesulfon-amidomethyl)-N-[(1R)-1-(1,3-thiazol-5-yl)ethyl]pyridine-3-carboxamide]
- IC50 [1]: 10 µM

SMILES: COc1ccccc1CNC(=O)c1ccc(CNS(=O)(=O)c2ccc(F)c(Cl)c2)nc1 [6-(3-chloro-4-fluorobenzenesulfon-amidomethyl)-N-[(2-methoxyphenyl)methyl] pyridine-3-carboxamide]
- IC50 [1]: 10 µM
- IC50 (read-out: Binned Activity): > 10 µM

SMILES: COc1cc(CNC(=O)c2ccc(CNS(=O)(=O)c3ccc(F)c(Cl)c3)nc2)ccn1 [6-(3-chloro-4-fluorobenzenesulfon-amidomethyl)-N-[(2-methoxypyridin-4-yl)methyl]pyridine-3-carboxamide]
- IC50 [1]: 10 µM
- IC50 (read-out: Binned Activity): > 10 µM

SMILES: Cc1nc(CNC(=O)c2ccc(CNS(=O)(=O)c3ccc(F)c(Cl)c3)nn2)cs1 [6-(3-chloro-4-fluorobenzenesulfon-amidomethyl)-N-[(2-methyl-1,3-thiazol-4-yl)methyl]pyridazine-3-carboxamide]
- IC50 [1]: 10 µM
- IC50 (read-out: Binned Activity): > 10 µM

SMILES: Cc1nc(CNC(=O)c2ccc(CNS(=O)(=O)c3ccc(F)c(Cl)c3)nc2)cs1 [6-(3-chloro-4-fluorobenzenesulfon-amidomethyl)-N-[(2-methyl-1,3-thiazol-4-yl)methyl]pyridine-3-carboxamide]
- IC50 [1]: 10 µM
- IC50 (read-out: Binned Activity): > 10 µM

SMILES: Cc1ncc(CNC(=O)c2ccc(CNS(=O)(=O)c3ccc(F)c(Cl)c3)nn2)s1 [6-(3-chloro-4-fluorobenzenesulfon-amidomethyl)-N-[(2-methyl-1,3-thiazol-5-yl)methyl]pyridazine-3-carboxamide]
- IC50 [1]: 10 µM
- IC50 (read-out: Binned Activity): > 10 µM

SMILES: COc1cccc(CNC(=O)c2ccc(CNS(=O)(=O)c3ccc(F)c(Cl)c3)nn2)c1 [6-(3-chloro-4-fluorobenzenesulfon-amidomethyl)-N-[(3-methoxyphenyl)methyl] pyridazine-3-carboxamide]
- IC50 [1]: 10 µM
- IC50 (read-out: Binned Activity): > 10 µM

SMILES: COc1ccc(CNC(=O)c2ccc(CNS(=O)(=O)c3ccc(F)c(Cl)c3)nn2)cc1 [6-(3-chloro-4-fluorobenzenesulfon-amidomethyl)-N-[(4-methoxyphenyl)methyl] pyridazine-3-carboxamide]
- IC50 [1]: 10 µM
- IC50 (read-out: Binned Activity): > 10 µM

SMILES: COc1ccc(CNC(=O)c2ccc(CNS(=O)(=O)c3ccc(F)c(Cl)c3)nc2)cc1 [6-(3-chloro-4-fluorobenzenesulfon-amidomethyl)-N-[(4-methoxyphenyl)methyl] pyridine-3-carboxamide]
- IC50 [1]: 10 µM
- IC50 (read-out: Binned Activity): > 10 µM

SMILES: Cc1csc(CNC(=O)c2ccc(CNS(=O)(=O)c3ccc(F)c(Cl)c3)nc2)n1 [6-(3-chloro-4-fluorobenzenesulfon-amidomethyl)-N-[(4-methyl-1,3-thiazol-2-yl)methyl]pyridine-3-carboxamide]
- IC50 [1]: 10 µM
- IC50 (read-out: Binned Activity): > 10 µM

SMILES: Cc1ncsc1CNC(=O)c1ccc(CNS(=O)(=O)c2ccc(F)c(Cl)c2)nn1 [6-(3-chloro-4-fluorobenzenesulfon-amidomethyl)-N-[(4-methyl-1,3-thiazol-5-yl)methyl]pyridazine-3-carboxamide]
- IC50 [1]: 10 µM
- IC50 (read-out: Binned Activity): > 10 µM

SMILES: Cc1ncsc1CNC(=O)c1ccc(CNS(=O)(=O)c2ccc(F)c(Cl)c2)nc1 [6-(3-chloro-4-fluorobenzenesulfon-amidomethyl)-N-[(4-methyl-1,3-thiazol-5-yl)methyl]pyridine-3-carboxamide]
- IC50 [1]: 10 µM
- IC50 (read-out: Binned Activity): > 10 µM

SMILES: Cc1ccncc1CNC(=O)c1ccc(CNS(=O)(=O)c2ccc(F)c(Cl)c2)nn1 [6-(3-chloro-4-fluorobenzenesulfon-amidomethyl)-N-[(4-methylpyridin-3-yl)methyl]pyridazine-3-carboxamide]
- IC50 [1]: 10 µM
- IC50 (read-out: Binned Activity): > 10 µM

SMILES: Cc1ccncc1CNC(=O)c1ccc(CNS(=O)(=O)c2ccc(F)c(Cl)c2)nc1 [6-(3-chloro-4-fluorobenzenesulfon-amidomethyl)-N-[(4-methylpyridin-3-yl)methyl]pyridine-3-carboxamide]
- IC50 (read-out: Binned Activity): 1 to 10 µM

SMILES: Cc1nnc(CNC(=O)c2ccc(CNS(=O)(=O)c3ccc(F)c(Cl)c3)nc2)o1 [6-(3-chloro-4-fluorobenzenesulfon-amidomethyl)-N-[(5-methyl-1,3,4-oxadiazol-2-yl)methyl]pyridine-3-carboxamide]
- IC50 [1]: 10 µM
- IC50 (read-out: Binned Activity): > 10 µM

SMILES: Cc1nnc(CNC(=O)c2ccc(CNS(=O)(=O)c3ccc(F)c(Cl)c3)nc2)s1 [6-(3-chloro-4-fluorobenzenesulfon-amidomethyl)-N-[(5-methyl-1,3,4-thiadiazol-2-yl)methyl]pyridine-3-carboxamide]
- IC50 [1]: 10 µM
- IC50 (read-out: Binned Activity): > 10 µM

SMILES: Cc1cnc(CNC(=O)c2ccc(CNS(=O)(=O)c3ccc(F)c(Cl)c3)nn2)cn1 [6-(3-chloro-4-fluorobenzenesulfon-amidomethyl)-N-[(5-methylpyrazin-2-yl)methyl]pyridazine-3-carboxamide]
- IC50 [1]: 10 µM
- IC50 (read-out: Binned Activity): > 10 µM

SMILES: Cc1cnc(CNC(=O)c2ccc(CNS(=O)(=O)c3ccc(F)c(Cl)c3)nc2)cn1 [6-(3-chloro-4-fluorobenzenesulfon-amidomethyl)-N-[(5-methylpyrazin-2-yl)methyl]pyridine-3-carboxamide]
- IC50 (read-out: Binned Activity): 0.1 to 1 µM

SMILES: Cc1ccc(CNC(=O)c2ccc(CNS(=O)(=O)c3ccc(F)c(Cl)c3)nc2)s1 [6-(3-chloro-4-fluorobenzenesulfon-amidomethyl)-N-[(5-methylthiophen-2-yl)methyl]pyridine-3-carboxamide]
- IC50 [1]: 10 µM
- IC50 (read-out: Binned Activity): > 10 µM

SMILES: COc1ccc(CNC(=O)c2ccc(CNS(=O)(=O)c3ccc(F)c(Cl)c3)nc2)cn1 [6-(3-chloro-4-fluorobenzenesulfon-amidomethyl)-N-[(6-methoxypyridin-3-yl)methyl]pyridine-3-carboxamide]
- IC50 [1]: 10 µM
- IC50 (read-out: Binned Activity): > 10 µM

SMILES: Cc1cccc(CNC(=O)c2ccc(CNS(=O)(=O)c3ccc(F)c(Cl)c3)nc2)n1 [6-(3-chloro-4-fluorobenzenesulfon-amidomethyl)-N-[(6-methylpyridin-2-yl)methyl]pyridine-3-carboxamide]
- IC50 [1]: 10 µM
- IC50 (read-out: Binned Activity): > 10 µM

SMILES: Cc1nc(C)c(CNC(=O)c2ccc(CNS(=O)(=O)c3ccc(F)c(Cl)c3)nn2)s1 [6-(3-chloro-4-fluorobenzenesulfon-amidomethyl)-N-[(dimethyl-1,3-thiazol-5-yl)methyl]pyridazine-3-carboxamide]
- IC50 [1]: 10 µM
- IC50 (read-out: Binned Activity): > 10 µM

SMILES: Cc1nc(C)c(CNC(=O)c2ccc(CNS(=O)(=O)c3ccc(F)c(Cl)c3)nc2)s1 [6-(3-chloro-4-fluorobenzenesulfon-amidomethyl)-N-[(dimethyl-1,3-thiazol-5-yl)methyl]pyridine-3-carboxamide]
- IC50 [1]: 10 µM
- IC50 (read-out: Binned Activity): > 10 µM

SMILES: O=C(NCc1ncccc1C(F)(F)F)c1ccc(CNS(=O)(=O)c2ccc(F)c(Cl)c2)nc1 [6-(3-chloro-4-fluorobenzenesulfon-amidomethyl)-N-{[3-(trifluoromethyl)pyridin-2-yl]methyl}pyridine-3-carboxamide]
- IC50 [1]: 10 µM
- IC50 (read-out: Binned Activity): > 10 µM

SMILES: O=C(NCc1ncc(C(F)(F)F)cc1Cl)c1ccc(CNS(=O)(=O)c2ccc(F)c(Cl)c2)nc1 [6-(3-chloro-4-fluorobenzenesulfon-amidomethyl)-N-{[3-chloro-5-(trifluoromethyl)pyridin-2-yl]methyl}pyridine-3-carboxamide]
- IC50 [1]: 10 µM
- IC50 (read-out: Binned Activity): > 10 µM

SMILES: Cc1ncc(CNC(=O)c2ccc(CNS(=O)(=O)c3cn(C)cn3)cn2)s1 [N-[(2-methyl-1,3-thiazol-5-yl)methyl]-5-(1-methyl-1H-imidazole-4-sulfonamidomethyl) pyridine-2-carboxamide]
- IC50 [1]: 10 µM
- IC50 (read-out: Binned Activity): > 10 µM

SMILES: Cc1ncc(CNC(=O)c2ccc(CNS(=O)(=O)c3ccn(C)n3)cn2)s1 [N-[(2-methyl-1,3-thiazol-5-yl)methyl]-5-(1-methyl-1H-pyrazole-3-sulfonamidomethyl) pyridine-2-carboxamide]
- IC50 [1]: 10 µM
- IC50 (read-out: Binned Activity): > 10 µM

SMILES: Cc1ncc(CNC(=O)c2cnc(CNS(=O)(=O)c3ccc(Oc4ccccc4)nc3)cn2)s1 [N-[(2-methyl-1,3-thiazol-5-yl)methyl]-5-(6-phenoxypyridine-3-sulfonamidomethyl) pyrazine-2-carboxamide]
- IC50 [1]: 10 µM
- IC50 (read-out: Binned Activity): > 10 µM
